Measured values reported in BindingDB's records for patent US20250313563 (The Broad Institute, 2025).
Several values for one entry are separate records, joined by “and”; a condition that tells them apart may be missing. Equal values may be shown once.

Columns and labels:
[1] = molecular target: Glycogen synthase kinase-3 alpha (Homo sapiens, UniProt P49840); test: TR-FRET Assay
In short: (§1)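 Compound was preincubated 30 min in assay buffer before the kinase reaction, which was quenched with EDTA. Phosphorylation was detected by TR-FRET after adding a solution of 40 nM streptavidin-d2 and 2 nM Tb-labelled anti-pSer641 antibody.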

[2] = molecular target: Glycogen synthase kinase-3 beta (Homo sapiens, UniProt P49841); test: TR-FRET Assay
Glycogen synthase kinase-3 beta, sequence (P49841 whole entry): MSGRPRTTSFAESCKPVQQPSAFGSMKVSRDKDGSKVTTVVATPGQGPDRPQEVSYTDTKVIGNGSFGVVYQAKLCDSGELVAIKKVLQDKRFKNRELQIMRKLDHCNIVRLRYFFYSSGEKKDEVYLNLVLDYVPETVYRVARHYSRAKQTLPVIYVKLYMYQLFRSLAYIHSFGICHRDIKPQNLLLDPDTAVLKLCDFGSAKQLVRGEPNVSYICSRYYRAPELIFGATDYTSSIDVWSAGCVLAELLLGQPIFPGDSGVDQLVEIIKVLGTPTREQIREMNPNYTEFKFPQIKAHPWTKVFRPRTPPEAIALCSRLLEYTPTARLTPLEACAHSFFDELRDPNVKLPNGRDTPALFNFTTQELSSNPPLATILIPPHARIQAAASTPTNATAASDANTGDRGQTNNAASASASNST
In short: as §1

Glycogen synthase kinase-3 alpha, sequence (P49840 whole entry): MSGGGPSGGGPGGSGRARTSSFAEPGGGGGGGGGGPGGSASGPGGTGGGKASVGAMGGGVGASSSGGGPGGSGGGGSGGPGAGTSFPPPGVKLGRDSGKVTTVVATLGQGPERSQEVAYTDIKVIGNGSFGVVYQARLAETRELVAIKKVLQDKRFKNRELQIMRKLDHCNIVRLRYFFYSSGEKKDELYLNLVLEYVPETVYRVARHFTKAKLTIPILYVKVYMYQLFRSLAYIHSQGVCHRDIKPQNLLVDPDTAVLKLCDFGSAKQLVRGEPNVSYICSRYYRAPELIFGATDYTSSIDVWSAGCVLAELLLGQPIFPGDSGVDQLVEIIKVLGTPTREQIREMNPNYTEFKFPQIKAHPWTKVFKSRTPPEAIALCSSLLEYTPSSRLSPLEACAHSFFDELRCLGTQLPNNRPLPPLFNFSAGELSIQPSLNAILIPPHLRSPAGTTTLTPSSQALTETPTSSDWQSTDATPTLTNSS

Row | SMILES | IC50 [1] | IC50 [2]
1 | CC1(c2ccccc2)C2=C(N=NC2)NC2=C1C(=O)CC1(CCCC1)C2 (stereo not drawn) [US20250313563, Compound 789460] | 0.1 to 1 µM | 0.1 to 1 µM
2 | CC1(C)CC(=O)C2=C(C1)NC1=C(CN=N1)C21CCN(S(=O)(=O)c2cccc(Cl)c2)CC1 [US20250313563, Compound 947243] | < 0.1 µM and 0.1 to 1 µM | < 0.1 µM and 1 to 5 µM
3 | CC1(C)CC(=O)C2=C(NC3N=NC=C3C23CCCCC3)[C@H]1F (stereo partly drawn) [US20250313563, Compound 951711] | < 0.1 µM | < 0.1 µM
4 | CC[C@]1(c2cccc(N(C)c3ccncc3)c2)C2=CN=NC2NC2=C1C(=O)CC(C)(C)C2 (stereo partly drawn) [US20250313563, Compound 874260] | < 0.1 µM | 0.1 to 1 µM
5 | CC[C@]1(c2ccc(C)cc2)C2=CN=NC2NC2=C1C(=O)CC(C)(C)C2 (stereo partly drawn) [US20250313563, Compound 789457] | 0.1 to 1 µM | 1 to 5 µM
6 | C[C@@H]1CC[C@]2(C1)C1=C(N=NC1)NC1=C2C(=O)CC(C)(C)C1 [US20250313563, Compound 883841] | 0.1 to 1 µM | 0.1 to 1 µM
7 | CCC1(c2cccc(N3CCOCC3)c2)C2=C(CC(C)(C)NC2=O)NC2N=NC(C(F)(F)F)=C21 (stereo not drawn) [US20250313563, Compound 947863] | < 0.1 µM | < 0.1 µM
8 | CC[C@@]1(c2cccc(-c3cnn(C4CC4)c3)c2)C2=CN=NC2NC2=C1C(=O)CC(C)(C)C2 (stereo partly drawn) [US20250313563, Compound 913041] | 1 to 5 µM | > 5 µM
9 | CC[C@]1(c2cccc(C3=C4CC=C(C)N=C4N=CC3)c2)C2=CN=NC2NC2=C1C(=O)NC(C)(C)C2 (stereo partly drawn) [US20250313563, Compound 948151] | 0.1 to 1 µM | > 5 µM
10 | CCN(c1cccnc1)c1cccc([C@]2(CC)C3=CN=NC3NC3=C2C(=O)CC(C)(C)C3)c1 (stereo partly drawn) [US20250313563, Compound 917089] | 0.1 to 1 µM | 1 to 5 µM
11 | CC[C@@]1(c2cccc(-c3cnn(C)c3F)c2)C2=CN=NC2NC2=C1C(=O)NC(C)(C)C2 (stereo partly drawn) [US20250313563, Compound 950562] | < 0.1 µM | 0.1 to 1 µM
12 | CC(C)C(=O)N1CC2(C1)CC1(CO2)C2=C(N=NC2)NC2=C1C(=O)CC(C)(C)C2 (stereo not drawn) [US20250313563, Compound 947304] | < 0.1 µM | 0.1 to 1 µM
13 | COc1cncc(F)c1-c1cccc([C@@]2(C)C3=C(CC(C)(C)CC3=O)NC3=C2C(CC(C)(C)C)N=N3)c1 (stereo partly drawn) [US20250313563, Compound 108956] | > 5 µM | 1 to 5 µM
14 | CC[C@@]1(c2cccc(-c3cc(C(C)(C)C)nn3C)c2)C2=CN=NC2NC2=C1C(=O)NC(C)(C)C2 (stereo partly drawn) [US20250313563, Compound 951843] | 0.1 to 1 µM | > 5 µM
15 | CC[C@@]1(c2cccc(-c3ccncc3F)c2)C2=C(CC(C)(C)CC2=O)NC2N=NC(C(F)(F)F)=C21 (stereo partly drawn) [US20250313563, Compound 947327] | < 0.1 µM | 0.1 to 1 µM
16 | C[C@@H]1C[C@@]2(CCN1S(=O)(=O)c1ccn(C)n1)C1=C(N=NC1)NC1=C2C(=O)CC(C)(C)C1 [US20250313563, Compound 917160] | 0.1 to 1 µM | 0.1 to 1 µM
17 | C[S@@+]([O-])c1cccc([C@]2(C)C3=C(CC(C)(C)CC3=O)NC3=C2C(CC(C)(C)C)N=N3)c1 (stereo partly drawn) [US20250313563, Compound 126191B:] | > 5 µM | 0.1 to 1 µM
18 | CC[C@]1(c2cccc(C(F)F)c2)C2=CN=NC2NC2=C1C(=O)CC(C)(C)C2 (stereo partly drawn) [US20250313563, Compound 826717] | < 0.1 µM and 0.1 to 1 µM | < 0.1 µM and 1 to 5 µM
19 | CC1(C)CC2=C(C(=O)[C@@H]1F)[C@]1(CC[C@H](C(F)(F)F)CC1)C1=CN=NC1N2 (stereo partly drawn) [US20250313563, Compound 918283] | < 0.1 µM | < 0.1 µM
20 | CC1(C)CC(=O)C2=C(C1)NC1=C(CN=N1)[C@@]21CCC[C@@H](C#N)C1 [US20250313563, Compound 945906] | 0.1 to 1 µM | 0.1 to 1 µM
21 | CC[C@]1(c2cccc(-c3ccncc3C)c2)C2=C(CC(C)(C)NC2=O)NC2N=NC(C)=C21 (stereo partly drawn) [US20250313563, Compound 947409] | 1 to 5 µM | > 5 µM
22 | CN1C[C@]2(C3=C(CC(C)(C)CC3=O)NC3N=NC(C4CC(F)(F)C4)=C32)c2ccccc21 (stereo partly drawn) [US20250313563, Compound 119047] | 1 to 5 µM | 0.1 to 1 µM
23 | CC1(C)CC(=O)C2=C(C1)NC1=C(CN=N1)C2(C)c1cc(Cl)ccc1F (stereo not drawn) [US20250313563, Compound 810377] | 0.1 to 1 µM | 1 to 5 µM
24 | CC[C@H]1C[C@@]2(CO1)C1=C(N=NC1)NC1=C2C(=O)CC(C)(C)C1 [US20250313563, Compound 913216] | 0.1 to 1 µM | 0.1 to 1 µM
